In publication PMC2767256 (Biochemical pharmacology, 2009):

Columns and labels:
Type in all cases: biochemical
SULT1A3 = SULT1A3 (Homo sapiens, UniProt P0DMM9); experiment: inhibition of dopamine sulfation with […]PAPS in BeWo cytosol
SULT1A1 = SULT1A1 (Homo sapiens, UniProt P50225); experiment: inhibition of 4-nitrophenol sulfation with […]PAPS in BeWo cytosol
SULT2A1 = biological target: T1, SULT2A1 (Homo sapiens, UniProt Q06520); experiment: sulfation of [3H]DHEA
T1 sequence (Q06520 1-285): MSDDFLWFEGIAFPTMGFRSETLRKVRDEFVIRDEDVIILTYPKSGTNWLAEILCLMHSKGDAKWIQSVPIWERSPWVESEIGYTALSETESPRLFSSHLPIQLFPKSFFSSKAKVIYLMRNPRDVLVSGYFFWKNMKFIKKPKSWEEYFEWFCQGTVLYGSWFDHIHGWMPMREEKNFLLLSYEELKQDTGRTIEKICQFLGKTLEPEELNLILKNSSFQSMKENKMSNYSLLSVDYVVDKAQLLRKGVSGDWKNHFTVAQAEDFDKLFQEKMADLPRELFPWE

Chain of SULT1A1 (P50225 whole entry): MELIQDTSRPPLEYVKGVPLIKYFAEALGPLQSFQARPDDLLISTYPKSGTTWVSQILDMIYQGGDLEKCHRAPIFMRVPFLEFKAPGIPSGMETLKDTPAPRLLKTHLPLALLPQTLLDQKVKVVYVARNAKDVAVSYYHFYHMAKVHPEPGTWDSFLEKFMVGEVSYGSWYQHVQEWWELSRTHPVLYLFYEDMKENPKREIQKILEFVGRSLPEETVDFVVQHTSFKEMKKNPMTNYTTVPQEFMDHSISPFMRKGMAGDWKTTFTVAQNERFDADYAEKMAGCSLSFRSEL
Chain of SULT1A3 (P0DMM9 whole entry): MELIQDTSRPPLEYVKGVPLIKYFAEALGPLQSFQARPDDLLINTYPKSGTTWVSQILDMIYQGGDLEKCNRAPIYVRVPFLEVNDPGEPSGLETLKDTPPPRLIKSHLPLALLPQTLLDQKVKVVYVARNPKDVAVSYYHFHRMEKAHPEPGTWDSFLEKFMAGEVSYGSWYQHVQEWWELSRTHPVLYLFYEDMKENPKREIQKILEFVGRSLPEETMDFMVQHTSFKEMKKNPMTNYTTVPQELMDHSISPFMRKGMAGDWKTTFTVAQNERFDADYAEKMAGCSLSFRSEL

Compound | IC50 (SULT1A3) [µM] | IC50 (SULT1A1) [µM] | sulfation of [3H]DHEA (3 and 10 μM) by purified SULT2A1 (SULT2A1)
O=[N+]([O-])c1cc(Cl)c(O)c(Cl)c1 [DCNP, 2,6-dichloro-4-nitrophenol] | 830 | 0.052 | –
C[C@]12CC[C@H](O)CC1=CC[C@@H]1[C@@H]2CC[C@]2(C)C(=O)CC[C@@H]12 [DHEA, dehydroepiandrosterone] | – | – | Under the same assay conditions, purified SULT2A1 readily sulfated DHEA
